# Measured values reported in patent publication USRE48461E1, “Modulation of androgen receptor expression” (Ionis Pharmaceuticals, Inc., priority 2012, dated 2021).
# Experiments:
# [1] = test system: AR-V7; test: Western blot of AR-V7 in MDV3100-resistant C4-2B cells; type: cell-based, human; details: C4-2B MR cells (Example 16)
# Experimental: ISIS 549372, ISIS 549434, and ISIS 554221 at 1 μM concentration of antisense oligonucleotide were each added to the culture media at 1 μM concentration for free uptake by the cells. After a treatment period of 2 days, cells were harvested in RIPA buffer containing protease inhibitors. The presence of bands for full-length AR, as well as the variant form, AR-V7, was detected by western blot using AR antibody (N-20, Santa Cruz).
# Western analysis of full-length AR, as well as the AR-V7 variant, was also conducted in a manner similar to the assay described above.
# [2] = Full-length oligonucleotide concentration in kidney and liver of cynomolgus monkeys; details: cynomolgus monkey, 40 mg/kg subcutaneously
# Experimental: Prior to the study, the monkeys were kept in quarantine for a 30-day period, during which the animals were observed daily for general health. The monkeys were 2-4 years old and weighed between 2 and 4 kg. Thirteen groups of four randomly assigned male cynomolgus monkeys each were injected subcutaneously with ISIS oligonucleotide or PBS. PBS solution or ISIS oligonucleotides, at a dose of 40 mg/kg, were administered with a loading regimen consisting of four doses on the first week of the study (days 1, 3, 5, and 7), followed by a maintenance regimen consisting of once weekly administration starting on Day 14 (weeks 2 to 6). Subcutaneous injections were performed in clock-wise rotations at 4 sites on the back; one site per dose. The injection sites were delineated by tattoo, while sedated using ketamine, and were separated by a minimum of 3 cm.
# The concentrations of the full-length oligonucleotide in the kidney and the liver of select treatment groups were measured. The method used is a modification of previously published methods (Leeds et al., 1996; Geary et al., 1999) which consist of a phenol-chloroform (liquid-liquid) extraction followed by a solid phase extraction.
# [3] = Body and organ weights in cynomolgus monkeys; details: cynomolgus monkey, 40 mg/kg s.c.
Sequence,levels of AR-V7 (Western analysis) [1],"Oligonucleotide concentration, Kidney [2]",tolerability: body and organ weights [3]
"GTTGATTTAATGGTTG (all phosphorothioate, sugars by position not given here; further chemistry not fully specified) [ISIS 549458]",reduced levels of full-length AR and AR-V7,–,–
"TTGATTTAATGGTTGC [ISIS 560131] (MOE and (S)-cEt gapmer chemistry, further chemistry not given here)",–,2029 μg/g tissue,well tolerated in terms of the body and organ weights of the monkeys
